# From ChEMBL document CHEMBL1141053, “Synthesis and SAR of novel oxazolidinones: discovery of ranbezolid” (2005)
# How the values were obtained:
# Format in all cases: functional
# [1] = test system: Staphylococcus aureus; assay: In vitro minimum inhibitory concentration against methicillin-resistant Staphylococcus aureus 562 after incubation in air at 35 degree C for 24 hr using agar dilution method
# [2] = test system: Staphylococcus aureus; assay: In vitro minimum inhibitory concentration against Staphylococcus aureus ATCC 25923 after incubation in air at 35 degree C for 24 hr using agar dilution method; details: ATCC 25923, 24 h
# [3] = test system: Enterococcus faecalis; assay: In vitro minimum inhibitory concentration against Enterococcus faecalis ATCC 29212 after incubation in air at 35 degree C for 24 hr using agar dilution method; details: ATCC 29212, 24 h
# [4] = test system: Streptococcus pneumoniae; assay: In vitro minimum inhibitory concentration against Streptococcus pneumoniae ATCC 6303 after incubation in air at 35 degree C for 24 hr using agar dilution method; details: ATCC 6303, 24 h
# [5] = test system: Streptococcus pyogenes; assay: In vitro minimum inhibitory concentration against Streptococcus pyogenes ATCC 19615 after incubation in air at 35 degree C for 24 hr using agar dilution method; details: ATCC 19615, 24 h
# [6] = test system: Enterococcus faecium; assay: In vitro minimum inhibitory concentration against vancomycin-resistant Enterococcus faecium 6A after incubation in air at 35 degree C for 24 hr using agar dilution method
# [7] = test system: Staphylococcus aureus; assay: In vivo effective dose (on day 7-post-infection) against methicillin-resistant Staphylococcus aureus 562 infected mice upon peroral administration at 30 min and 4 hr post-infection; details: po
SMILES,MIC [1],MIC [2],MIC [3],MIC [4],MIC [5],MIC [6],ED50 [7]
CCOC(=O)c1ccc(CN2CCN(c3ccc(N4C[C@H](CNC(C)=O)OC4=O)cc3F)CC2)o1,> 16 µg/mL,> 16 µg/mL,> 16 µg/mL,> 16 µg/mL,> 16 µg/mL,> 16 µg/mL,–
CN[C@H](CC(C)C)C(=O)N[C@H]1C(=O)N[C@@H](CC(N)=O)C(=O)N[C@H]2C(=O)N[C@H]3C(=O)N[C@H](C(=O)N[C@H](C(=O)O)c4cc(O)cc(O)c4-c4cc3ccc4O)[C@H](O)c3ccc(c(Cl)c3)Oc3cc2cc(c3O[C@@H]2O[C@H](CO)[C@@H](O)[C@H](O)[C@H]2O[C@H]2C[C@](C)(N)[C@H](O)[C@H](C)O2)Oc2ccc(cc2Cl)[C@H]1O [VANCOMYCIN],–,–,> 16 µg/mL,0.5 µg/mL,–,–,8.8 mg/kg
CC(=O)NC[C@H]1CN(c2ccc(N3CCN(Cc4ccc(/C=N/O)o4)CC3)c(F)c2)C(=O)O1,2 µg/mL,2 µg/mL,16 µg/mL,8 µg/mL,4 µg/mL,8 µg/mL,–
CC(=O)NC[C@H]1CN(c2ccc(N3CCCN(Cc4ccc([N+](=O)[O-])o4)CC3)c(F)c2)C(=O)O1.Cl,1 µg/mL,2 µg/mL,2 µg/mL,1 µg/mL,1 µg/mL,2 µg/mL,> 25 mg/kg
CC(=O)NC[C@H]1CN(c2ccc(N3CCN(Cc4ccc(C)o4)CC3)c(F)c2)C(=O)O1,> 16 µg/mL,> 16 µg/mL,> 16 µg/mL,> 16 µg/mL,> 16 µg/mL,> 16 µg/mL,–
CC(=O)NC[C@H]1CN(c2ccc(N3CCN(Cc4ccc(C(=O)O)o4)CC3)c(F)c2)C(=O)O1,> 16 µg/mL,> 16 µg/mL,> 16 µg/mL,> 16 µg/mL,> 16 µg/mL,> 16 µg/mL,–
CC(=O)NC[C@H]1CN(c2ccc(N3C[C@@H]4[C@@H](CN(C)c5ccc([N+](=O)[O-])o5)[C@@H]4C3)c(F)c2)C(=O)O1,1 µg/mL,2 µg/mL,4 µg/mL,–,0.125 µg/mL,2 µg/mL,> 25 mg/kg
CC(=O)NC[C@H]1CN(c2ccc(N3CCC(N(C(C)=O)c4ccc([N+](=O)[O-])o4)CC3)c(F)c2)C(=O)O1,> 16 µg/mL,> 16 µg/mL,> 16 µg/mL,> 16 µg/mL,> 16 µg/mL,> 16 µg/mL,–
CC(=O)NC[C@H]1CN(c2ccc(N3CCC(Nc4ccc([N+](=O)[O-])o4)CC3)c(F)c2)C(=O)O1,1 µg/mL,1 µg/mL,0.5 µg/mL,2 µg/mL,0.25 µg/mL,0.5 µg/mL,–
CC(=O)NC[C@H]1CN(c2ccc(N3C[C@@H]4[C@H](C3)[C@H]4N(C)c3ccc([N+](=O)[O-])o3)c(F)c2)C(=O)O1,–,2 µg/mL,1 µg/mL,2 µg/mL,0.06 µg/mL,2 µg/mL,–
CC(=O)NC[C@H]1CN(c2ccc(N3CCOCC3)c(F)c2)C(=O)O1 [LINEZOLID],–,–,–,–,2 µg/mL,2 µg/mL,5.6 mg/kg
CC(=O)NC[C@H]1CN(c2ccc(N3CCN(Cc4ccc([N+](=O)[O-])n4C)CC3)c(F)c2)C(=O)O1,4 µg/mL,4 µg/mL,4 µg/mL,8 µg/mL,2 µg/mL,4 µg/mL,–
CC(=O)NC[C@H]1CN(c2ccc(N3CCN(Cc4ccc(Br)o4)CC3)c(F)c2)C(=O)O1,> 16 µg/mL,> 16 µg/mL,> 16 µg/mL,> 16 µg/mL,> 16 µg/mL,> 16 µg/mL,–
CC(=O)NC[C@H]1CN(c2ccc(N3CCN(Cc4ccc([N+](=O)[O-])s4)CC3)c(F)c2)C(=O)O1,8 µg/mL,8 µg/mL,8 µg/mL,8 µg/mL,1 µg/mL,8 µg/mL,–
